From ChEMBL document CHEMBL2074163, “Identification of monocarboxylate transporter 8 as a specific thyroid hormone transporter” (J Biol Chem, 2003)

Assays:
Assay type in all cases: functional, cell-based
Conditions in all cases: Oocyte
[1] = biological target: Monocarboxylate transporter 8 (Rattus norvegicus) (UniProt Q8K1P8); experiment: TP_TRANSPORTER: uptake in Xenopus laevis oocytes
[2] = biological target: Monocarboxylate transporter 8 (Rattus norvegicus) (UniProt Q8K1P8); experiment: TP_TRANSPORTER: inhibition of thyroxine uptake (thyroxine:10nM, Tryptophan: 100 uM) in Xenopus laevis oocytes; design: scale not given: the % may be the effect or the level left
[3] = biological target: Monocarboxylate transporter 8 (Rattus norvegicus) (UniProt Q8K1P8); experiment: TP_TRANSPORTER: inhibition of 3,3',5-triiodothyronine uptake (3,3',5-triiodothyronine:10nM, Tryptophan: 100 uM) in Xenopus laevis oocytes; design: scale not given: the % may be the effect or the level left
[4] = biological target: Monocarboxylate transporter 8 (Rattus norvegicus) (UniProt Q8K1P8); experiment: TP_TRANSPORTER: inhibition of 3,3',5-triiodothyronine uptake (3,3',5-triiodothyronine:10nM, D-thyroxine: 10 uM) in Xenopus laevis oocytes; design: scale not given: the % may be the effect or the level left
[5] = biological target: Monocarboxylate transporter 8 (Rattus norvegicus) (UniProt Q8K1P8); experiment: TP_TRANSPORTER: inhibition of thyroxine uptake (thyroxine:10nM, D-thyroxine: 10 uM) in Xenopus laevis oocytes; design: scale not given: the % may be the effect or the level left
[6] = biological target: Monocarboxylate transporter 8 (Rattus norvegicus) (UniProt Q8K1P8); experiment: TP_TRANSPORTER: inhibition of 3,3',5-triiodothyronine uptake (3,3',5-triiodothyronine:10nM, D-3,3',5-triiodothyronine: 10 uM) in Xenopus laevis oocytes; design: scale not given: the % may be the effect or the level left
[7] = biological target: Monocarboxylate transporter 8 (Rattus norvegicus) (UniProt Q8K1P8); experiment: TP_TRANSPORTER: inhibition of thyroxine uptake (thyroxine:10nM, D-3,3',5-triiodothyronine: 10 uM) in Xenopus laevis oocytes; design: scale not given: the % may be the effect or the level left
[8] = biological target: Monocarboxylate transporter 8 (Rattus norvegicus) (UniProt Q8K1P8); experiment: TP_TRANSPORTER: inhibition of 3,3',5-triiodothyronine uptake (3,3',5-triiodothyronine:10nM, Tyrosine: 100 uM) in Xenopus laevis oocytes; design: scale not given: the % may be the effect or the level left
[9] = biological target: Monocarboxylate transporter 8 (Rattus norvegicus) (UniProt Q8K1P8); experiment: TP_TRANSPORTER: inhibition of thyroxine uptake (thyroxine:10nM, Tyrosine: 100 uM) in Xenopus laevis oocytes; design: scale not given: the % may be the effect or the level left
[10] = biological target: Monocarboxylate transporter 8 (Rattus norvegicus) (UniProt Q8K1P8); experiment: TP_TRANSPORTER: inhibition of thyroxine uptake (thyroxine:10nM, bromosul-fophthalein: 100 uM) in Xenopus laevis oocytes; design: scale not given: the % may be the effect or the level left
[11] = biological target: Monocarboxylate transporter 8 (Rattus norvegicus) (UniProt Q8K1P8); experiment: TP_TRANSPORTER: inhibition of 3,3',5-triiodothyronine uptake (3,3',5-triiodothyronine:10nM, bromosul-fophthalein: 100 uM) in Xenopus laevis oocytes; design: scale not given: the % may be the effect or the level left
[12] = biological target: Monocarboxylate transporter 8 (Rattus norvegicus) (UniProt Q8K1P8); experiment: TP_TRANSPORTER: inhibition of thyroxine uptake (thyroxine:10nM, L-thyroxine: 10 uM) in Xenopus laevis oocytes; design: scale not given: the % may be the effect or the level left
[13] = biological target: Monocarboxylate transporter 8 (Rattus norvegicus) (UniProt Q8K1P8); experiment: TP_TRANSPORTER: inhibition of 3,3',5-triiodothyronine uptake (3,3',5-triiodothyronine:10nM, L-thyroxine: 10 uM) in Xenopus laevis oocytes; design: scale not given: the % may be the effect or the level left
[14] = biological target: Monocarboxylate transporter 8 (Rattus norvegicus) (UniProt Q8K1P8); experiment: TP_TRANSPORTER: inhibition of 3,3',5-triiodothyronine uptake (3,3',5-triiodothyronine:10nM, N-bromoacetyl-3,3',5-triiodothyronine: 10 uM) in Xenopus laevis oocytes; design: scale not given: the % may be the effect or the level left
[15] = biological target: Monocarboxylate transporter 8 (Rattus norvegicus) (UniProt Q8K1P8); experiment: TP_TRANSPORTER: inhibition of thyroxine uptake (thyroxine:10nM, N-bromoacetyl-3,3',5-triiodothyronine: 10 uM) in Xenopus laevis oocytes; design: scale not given: the % may be the effect or the level left

Chain of Monocarboxylate transporter 8 (Rattus norvegicus) (Q8K1P8 whole entry): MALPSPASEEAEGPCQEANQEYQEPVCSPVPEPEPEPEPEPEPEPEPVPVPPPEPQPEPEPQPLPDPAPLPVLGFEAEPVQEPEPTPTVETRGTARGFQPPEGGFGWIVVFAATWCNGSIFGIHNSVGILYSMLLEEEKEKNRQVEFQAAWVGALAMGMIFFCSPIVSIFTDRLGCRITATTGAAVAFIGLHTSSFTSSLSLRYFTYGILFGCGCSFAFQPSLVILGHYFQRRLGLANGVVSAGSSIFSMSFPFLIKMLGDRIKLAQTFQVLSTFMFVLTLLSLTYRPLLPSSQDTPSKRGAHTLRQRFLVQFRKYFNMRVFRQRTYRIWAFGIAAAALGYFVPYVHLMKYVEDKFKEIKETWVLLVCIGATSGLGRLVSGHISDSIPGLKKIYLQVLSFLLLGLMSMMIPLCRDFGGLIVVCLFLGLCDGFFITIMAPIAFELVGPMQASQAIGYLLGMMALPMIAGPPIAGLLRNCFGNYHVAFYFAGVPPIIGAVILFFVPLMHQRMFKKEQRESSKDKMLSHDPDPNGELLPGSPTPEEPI

O=C(O)[C@@H](Cc1cc(I)c(Oc2cc(I)c(O)c(I)c2)c(I)c1)NS(=O)(=O)O
Activity [1]: is not a substrate [-]

N[C@@H](Cc1cc(I)c(Oc2cc(I)c(OS(=O)(=O)O)c(I)c2)c(I)c1)C(=O)O
Activity [1]: is not a substrate [-]

N[C@@H](Cc1c[nH]c2ccccc12)C(=O)O
Activity [2]: 22% | Activity [3]: 0% | Activity [1]: is not a substrate [-]

N[C@H](Cc1cc(I)c(Oc2cc(I)c(O)c(I)c2)c(I)c1)C(=O)O
Activity [4]: 21% | Activity [5]: 76%

N[C@@H](Cc1ccc(Oc2cc(I)c(O)c(I)c2)c(I)c1)C(=O)O
Activity [6]: 24% | Activity [7]: 72%

CC(C)C[C@H](N)C(=O)O
Activity [1]: is not a substrate [-]

N[C@@H](Cc1ccc(O)cc1)C(=O)O
Activity [8]: 0% | Activity [9]: 37% | Activity [1]: is not a substrate [-]

O=C1OC(c2ccc(O)c(S(=O)(=O)O)c2)(c2ccc(O)c(S(=O)(=O)O)c2)c2c(Br)c(Br)c(Br)c(Br)c21
Activity [10]: 94% | Activity [11]: 81%

N[C@@H](Cc1cc(I)c(Oc2cc(I)c(O)c(I)c2)c(I)c1)C(=O)O
Activity [12]: 69% | Activity [13]: 26%

O=C(CBr)N[C@@H](Cc1cc(I)c(Oc2ccc(O)c(I)c2)c(I)c1)C(=O)O
Activity [14]: 67% | Activity [15]: 90%

NC(Cc1ccc(Oc2ccc(O)c(I)c2)c(I)c1)C(=O)O (stereo unspecified)
Activity [1]: substrate [+]

N[C@@H](Cc1ccccc1)C(=O)O
Activity [1]: is not a substrate [-]
